We go through twelve compounds from ChEMBL document CHEMBL5505966, “Synthesis and pharmacological characterization of conformationally restricted 2-amino-Adipic acid analogs and carboxycyclopropyl glycines as selective metabotropic glutamate 2 receptor agonists” (Eur J Med Chem, 2024).

For experiment [1], the target named is Metabotropic glutamate receptor 6 (Rattus norvegicus) (UniProt P35349). Nature of the experiment: Agonist activity at rat mGluR6 receptor expressed in HEK293 cells at 30 uM by IP-1 HTRF assay. Type of experiment: functional, cell-based.
Experiment [2] has as its target Metabotropic glutamate receptor 8 (Rattus norvegicus) (UniProt P70579). Nature of the experiment: Agonist activity at rat mGluR8 receptor expressed in HEK293 cells at 30 uM by IP-1 HTRF assay. It counts as functional, cell-based.
Experiment [3] addresses Metabotropic glutamate receptor 1 (Rattus norvegicus) (UniProt P23385). Put plainly: Agonist activity at rat mGluR1 receptor expressed in HEK293 cells at 30 uM by IP-1 HTRF assay. It counts as functional, cell-based.
The target in experiment [4] is Metabotropic glutamate receptor 4 (Rattus norvegicus) (UniProt P31423). Put plainly: Agonist activity at rat mGluR4 receptor expressed in HEK293 cells at 30 uM by IP-1 HTRF assay. Type of experiment: functional, cell-based.
Experiment [5] deals with Metabotropic glutamate receptor 8 (Rattus norvegicus) (UniProt P70579). Put plainly: Antagonist activity at rat mGluR8 receptor expressed in HEK293 cells by IP-1 HTRF assay. It counts as functional, cell-based.
Experiment [6] concerns the target Metabotropic glutamate receptor 1 (Rattus norvegicus) (UniProt P23385). Put plainly: Antagonist activity at rat mGluR1 receptor expressed in HEK293 cells by IP-1 HTRF assay. Type of experiment: functional, cell-based.
The target of experiment [7] is Metabotropic glutamate receptor 6 (Rattus norvegicus) (UniProt P35349). Nature of the experiment: Antagonist activity at rat mGluR6 receptor expressed in HEK293 cells by IP-1 HTRF assay. It counts as functional, cell-based.
Experiment [8] addresses Metabotropic glutamate receptor 7 (Rattus norvegicus) (UniProt P35400). Nature of the experiment: Antagonist activity at rat mGluR7 receptor expressed in HEK293 cells by IP-1 HTRF assay. It counts as functional, cell-based.
Experiment [9] has the same target. Put plainly: Agonist activity at rat mGluR7 receptor expressed in HEK293 cells at 30 uM by IP-1 HTRF assay. Type of experiment: functional, cell-based.
Experiment [10] addresses Metabotropic glutamate receptor 4 (Rattus norvegicus) (UniProt P31423). Put plainly: Antagonist activity at rat mGluR4 receptor expressed in HEK293 cells by IP-1 HTRF assay. Type of experiment: functional, cell-based.
In experiment [11] the target is Metabotropic glutamate receptor 2 (Rattus norvegicus) (UniProt P31421). Put plainly: Agonist activity at rat mGluR2 receptor expressed in HEK293 cells at 30 uM by IP-1 HTRF assay. It counts as functional, cell-based.
The target of experiment [12] is Metabotropic glutamate receptor 5 (Rattus norvegicus) (UniProt P31424). Nature of the experiment: Agonist activity at rat mGluR5 receptor expressed in HEK293 cells at 30 uM by IP-1 HTRF assay. Type of experiment: functional, cell-based.
The target of experiment [13] is Metabotropic glutamate receptor 2 (Rattus norvegicus) (UniProt P31421). Nature of the experiment: Antagonist activity at rat mGluR2 receptor expressed in HEK293 cells by IP-1 HTRF assay. It counts as functional, cell-based.
For experiment [14], the target named is Metabotropic glutamate receptor 3 (Rattus norvegicus) (UniProt P31422). Nature of the experiment: Agonist activity at rat mGluR3 receptor expressed in HEK293 cells at 30 uM by IP-1 HTRF assay. It counts as functional, cell-based.
Experiment [15] has the same target. Put plainly: Antagonist activity at rat mGluR3 receptor expressed in HEK293 cells by IP-1 HTRF assay. Type of experiment: functional, cell-based.
The target in experiment [16] is Metabotropic glutamate receptor 5 (Rattus norvegicus) (UniProt P31424). Put plainly: Antagonist activity at rat mGluR5 receptor expressed in HEK293 cells by IP-1 HTRF assay. It counts as functional, cell-based.
The target of experiment [17] is Metabotropic glutamate receptor 3 (Homo sapiens, UniProt Q14832). Put plainly: Agonist activity at human recombinant mGluR3 receptor assessed as inhibition of forskolin-stimulated [3H]cAMP accumulation incubated for 20 mins by SPA kit analysis. It counts as functional.
The target of experiment [18] is Metabotropic glutamate receptor 2 (Rattus norvegicus, UniProt P31421). Nature of the experiment: Agonist activity at rat mGluR2 receptor expressed in HEK293 cells by IP-1 HTRF assay. It counts as functional, cell-based. To be noted: read-out: EC50.

Structures are written as SMILES. The source made the active and inactive calls. The calls are words filed in the database; no cut-off is given here.

Sequence of Metabotropic glutamate receptor 6 (Rattus norvegicus) (P35349 whole entry): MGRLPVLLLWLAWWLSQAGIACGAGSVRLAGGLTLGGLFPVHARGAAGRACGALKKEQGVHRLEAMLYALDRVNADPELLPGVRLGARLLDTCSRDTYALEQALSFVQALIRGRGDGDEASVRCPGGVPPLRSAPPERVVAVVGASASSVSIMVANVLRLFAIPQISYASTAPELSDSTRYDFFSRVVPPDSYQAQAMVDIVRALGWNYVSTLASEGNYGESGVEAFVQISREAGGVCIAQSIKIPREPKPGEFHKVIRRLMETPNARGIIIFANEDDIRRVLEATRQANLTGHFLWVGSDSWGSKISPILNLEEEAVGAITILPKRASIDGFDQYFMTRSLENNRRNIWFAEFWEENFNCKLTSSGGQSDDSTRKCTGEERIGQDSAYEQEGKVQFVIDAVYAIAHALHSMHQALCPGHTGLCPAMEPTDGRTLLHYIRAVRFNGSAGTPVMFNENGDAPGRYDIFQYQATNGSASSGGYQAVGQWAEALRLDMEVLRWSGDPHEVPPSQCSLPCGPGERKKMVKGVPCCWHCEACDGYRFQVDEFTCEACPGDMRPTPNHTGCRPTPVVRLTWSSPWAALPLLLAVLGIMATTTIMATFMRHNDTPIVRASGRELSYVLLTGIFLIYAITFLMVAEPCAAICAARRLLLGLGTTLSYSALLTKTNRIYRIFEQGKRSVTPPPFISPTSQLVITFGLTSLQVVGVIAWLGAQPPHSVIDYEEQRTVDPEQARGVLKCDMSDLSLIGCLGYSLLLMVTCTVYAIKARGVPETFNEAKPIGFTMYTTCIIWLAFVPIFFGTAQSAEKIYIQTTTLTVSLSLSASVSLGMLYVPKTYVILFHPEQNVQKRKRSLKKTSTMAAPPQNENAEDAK
Sequence of Metabotropic glutamate receptor 2 (P31421 whole entry): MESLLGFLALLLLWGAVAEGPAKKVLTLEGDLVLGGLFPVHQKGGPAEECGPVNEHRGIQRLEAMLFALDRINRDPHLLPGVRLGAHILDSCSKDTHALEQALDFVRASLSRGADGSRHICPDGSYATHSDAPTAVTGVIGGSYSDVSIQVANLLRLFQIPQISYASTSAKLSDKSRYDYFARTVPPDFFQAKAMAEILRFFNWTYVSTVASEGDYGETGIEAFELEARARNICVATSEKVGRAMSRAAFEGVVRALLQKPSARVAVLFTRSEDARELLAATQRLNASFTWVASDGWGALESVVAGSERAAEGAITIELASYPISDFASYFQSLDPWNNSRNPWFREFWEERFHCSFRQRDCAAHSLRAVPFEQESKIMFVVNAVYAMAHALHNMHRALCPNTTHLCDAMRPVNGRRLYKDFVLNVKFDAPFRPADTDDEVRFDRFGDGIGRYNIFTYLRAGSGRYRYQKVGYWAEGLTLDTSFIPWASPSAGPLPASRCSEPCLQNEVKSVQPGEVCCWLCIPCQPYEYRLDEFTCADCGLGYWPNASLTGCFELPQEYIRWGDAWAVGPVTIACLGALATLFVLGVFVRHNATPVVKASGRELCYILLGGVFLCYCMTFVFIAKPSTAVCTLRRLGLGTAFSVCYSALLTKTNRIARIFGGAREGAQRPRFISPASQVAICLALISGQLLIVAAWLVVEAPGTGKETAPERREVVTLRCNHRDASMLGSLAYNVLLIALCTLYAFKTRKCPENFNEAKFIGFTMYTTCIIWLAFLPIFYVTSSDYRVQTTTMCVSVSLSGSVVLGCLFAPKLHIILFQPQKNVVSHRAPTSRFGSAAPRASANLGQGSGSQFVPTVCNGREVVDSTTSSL
Sequence of Metabotropic glutamate receptor 7 (Rattus norvegicus) (P35400 whole entry): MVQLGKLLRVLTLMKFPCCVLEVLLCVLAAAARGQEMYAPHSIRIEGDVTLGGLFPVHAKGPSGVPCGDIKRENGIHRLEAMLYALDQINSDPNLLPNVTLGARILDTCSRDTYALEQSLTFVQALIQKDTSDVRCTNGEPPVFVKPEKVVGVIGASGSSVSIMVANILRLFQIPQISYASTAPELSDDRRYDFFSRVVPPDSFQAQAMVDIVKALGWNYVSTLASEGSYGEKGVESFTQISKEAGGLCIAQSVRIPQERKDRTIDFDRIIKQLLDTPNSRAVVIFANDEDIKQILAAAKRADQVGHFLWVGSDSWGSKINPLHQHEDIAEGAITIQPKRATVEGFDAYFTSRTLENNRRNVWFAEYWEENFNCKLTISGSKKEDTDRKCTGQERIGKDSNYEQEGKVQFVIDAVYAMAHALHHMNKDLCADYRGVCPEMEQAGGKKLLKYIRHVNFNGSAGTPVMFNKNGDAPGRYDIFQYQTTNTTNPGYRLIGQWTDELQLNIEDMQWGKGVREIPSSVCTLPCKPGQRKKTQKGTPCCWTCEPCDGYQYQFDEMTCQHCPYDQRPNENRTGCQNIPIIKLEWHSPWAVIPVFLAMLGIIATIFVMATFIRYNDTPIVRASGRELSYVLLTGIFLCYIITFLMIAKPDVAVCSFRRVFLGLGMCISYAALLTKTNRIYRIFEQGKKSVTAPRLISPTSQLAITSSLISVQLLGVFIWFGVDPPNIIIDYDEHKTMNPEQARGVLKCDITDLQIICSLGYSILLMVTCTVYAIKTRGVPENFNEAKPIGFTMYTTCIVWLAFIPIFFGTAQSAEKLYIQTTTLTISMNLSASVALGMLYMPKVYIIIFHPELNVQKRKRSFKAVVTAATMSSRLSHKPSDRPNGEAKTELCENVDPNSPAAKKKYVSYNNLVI
Sequence of Metabotropic glutamate receptor 1 (Rattus norvegicus) (P23385 19-1199 limits assumed): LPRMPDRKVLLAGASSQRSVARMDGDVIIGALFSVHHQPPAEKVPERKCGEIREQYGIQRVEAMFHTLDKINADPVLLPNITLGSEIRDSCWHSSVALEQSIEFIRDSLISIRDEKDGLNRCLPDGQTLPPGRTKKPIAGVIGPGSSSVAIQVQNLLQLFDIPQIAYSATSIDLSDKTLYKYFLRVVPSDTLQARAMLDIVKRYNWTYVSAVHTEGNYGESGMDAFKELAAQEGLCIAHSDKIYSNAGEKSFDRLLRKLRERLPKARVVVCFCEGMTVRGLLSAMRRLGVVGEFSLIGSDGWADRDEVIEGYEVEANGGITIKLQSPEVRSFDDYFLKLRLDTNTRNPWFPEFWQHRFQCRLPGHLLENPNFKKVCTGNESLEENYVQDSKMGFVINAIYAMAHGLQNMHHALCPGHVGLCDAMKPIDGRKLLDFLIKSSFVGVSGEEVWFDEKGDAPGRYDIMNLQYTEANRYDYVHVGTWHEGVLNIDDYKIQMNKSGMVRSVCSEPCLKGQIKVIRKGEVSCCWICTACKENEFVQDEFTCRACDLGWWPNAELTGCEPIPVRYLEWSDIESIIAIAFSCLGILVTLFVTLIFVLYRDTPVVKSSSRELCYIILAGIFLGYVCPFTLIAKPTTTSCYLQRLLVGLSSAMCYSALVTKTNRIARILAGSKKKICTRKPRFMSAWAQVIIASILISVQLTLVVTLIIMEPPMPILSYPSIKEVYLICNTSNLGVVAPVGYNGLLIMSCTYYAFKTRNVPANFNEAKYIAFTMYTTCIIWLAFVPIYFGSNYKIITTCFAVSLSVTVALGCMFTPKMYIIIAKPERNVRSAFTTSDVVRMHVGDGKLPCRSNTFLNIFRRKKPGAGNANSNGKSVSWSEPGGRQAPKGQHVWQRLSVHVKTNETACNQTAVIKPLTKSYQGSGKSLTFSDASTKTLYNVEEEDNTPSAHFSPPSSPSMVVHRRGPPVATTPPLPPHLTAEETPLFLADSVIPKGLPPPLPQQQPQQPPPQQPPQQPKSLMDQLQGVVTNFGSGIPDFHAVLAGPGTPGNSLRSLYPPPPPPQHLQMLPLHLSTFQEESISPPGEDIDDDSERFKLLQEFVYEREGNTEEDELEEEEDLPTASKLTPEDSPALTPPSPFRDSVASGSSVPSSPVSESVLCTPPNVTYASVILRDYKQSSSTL
Sequence of Metabotropic glutamate receptor 3 (Q14832 whole entry): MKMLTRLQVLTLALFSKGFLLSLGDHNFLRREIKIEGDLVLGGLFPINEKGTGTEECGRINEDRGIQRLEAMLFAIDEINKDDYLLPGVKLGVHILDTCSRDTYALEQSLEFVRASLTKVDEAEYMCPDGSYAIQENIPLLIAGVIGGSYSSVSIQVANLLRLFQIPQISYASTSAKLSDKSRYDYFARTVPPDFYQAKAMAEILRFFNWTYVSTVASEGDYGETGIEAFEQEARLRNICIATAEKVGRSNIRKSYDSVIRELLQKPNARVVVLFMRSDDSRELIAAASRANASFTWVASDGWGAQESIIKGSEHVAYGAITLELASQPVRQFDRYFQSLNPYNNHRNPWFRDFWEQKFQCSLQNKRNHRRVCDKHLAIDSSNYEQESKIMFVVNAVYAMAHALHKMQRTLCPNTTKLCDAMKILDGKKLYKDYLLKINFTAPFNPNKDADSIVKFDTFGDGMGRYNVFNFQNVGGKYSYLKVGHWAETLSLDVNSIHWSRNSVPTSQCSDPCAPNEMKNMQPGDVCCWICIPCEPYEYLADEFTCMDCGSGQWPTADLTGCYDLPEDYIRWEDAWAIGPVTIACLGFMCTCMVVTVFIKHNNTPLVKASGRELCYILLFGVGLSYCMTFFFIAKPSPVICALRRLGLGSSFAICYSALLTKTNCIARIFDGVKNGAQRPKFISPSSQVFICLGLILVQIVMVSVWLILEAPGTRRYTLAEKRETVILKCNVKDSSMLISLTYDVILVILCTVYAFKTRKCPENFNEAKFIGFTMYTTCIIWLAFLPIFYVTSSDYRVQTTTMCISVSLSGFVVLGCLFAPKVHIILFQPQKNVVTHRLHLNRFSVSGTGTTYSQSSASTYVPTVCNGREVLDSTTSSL

Consider `CC[C@]1(C(=O)O)C[C@@H]1[C@H](N)C(=O)O`, for which the result in [1], in experiment [2], in experiment [3], in experiment [4], in [9] and in experiment [11] was inactive. Also, the outcome in experiment [12] and in experiment [14] was inactive. The inhibition result in experiment [5], in experiment [6], in [7], in experiment [8], in [10] and in [13] was “inactive” throughout. Besides, the inhibition entry in [15] and in experiment [16] was “inactive” in each case.
With `N[C@@H](CCC(=O)O)C(=O)O` [GLUTAMIC ACID], in experiment [17], the EC50 turned out to be 9 µM.
With `C[C@]1(C[C@H](N)C(=O)O)C[C@H]1C(=O)O`, the outcome in experiment [1], in experiment [2], in experiment [3], in experiment [4], in [9] and in experiment [11] was inactive. Moreover, the outcome in [12] and in experiment [14] was inactive. For the same compound, the inhibition entry in experiment [5], in experiment [6], in experiment [7], in [8], in [10] and in experiment [13] was “inactive” in each case. The inhibition result in [15] and in [16] was “inactive” each time.
Take `C[C@@]1(C[C@H](N)C(=O)O)C[C@@H]1C(=O)O`: the result in [1], in experiment [2], in [3], in experiment [4], in experiment [9] and in experiment [12] was inactive. Moreover, in [14], the result was inactive. Also, in experiment [18], the EC50 was found to be 7.5 µM. In addition, the inhibition entry in experiment [5], in experiment [6], in [7], in experiment [8], in experiment [10] and in experiment [13] was “inactive” each time. For the same compound, the inhibition result in experiment [15] and in experiment [16] was “inactive” each time.
On to `C[C@@]1(C[C@H](N)C(=O)O)C[C@H]1C(=O)O`, for which the outcome in experiment [1], in experiment [2], in experiment [3], in [4], in [9] and in experiment [11] was inactive. For the same compound, the outcome in experiment [12] and in [14] was inactive. Further, the inhibition entry in experiment [5], in [6], in [7], in [8], in [10] and in experiment [13] was “inactive” throughout. For the same compound, the inhibition result in experiment [15] and in [16] was “inactive” throughout.
As to `N[C@H](C(=O)O)[C@H]1[C@@H](CO)[C@@H]1C(=O)O`, the EC50 in [17] was determined as 0.038 µM.
The same measure, in the same setting: next, `N[C@@]1(C(=O)O)CC[C@@H](C(=O)O)C1`: 860 µM.
Consider `C[C@]1(C(=O)O)C[C@H]1C(N)C(=O)O` (mixture of isomers), for which the outcome in experiment [1], in [2], in experiment [3], in [4], in [9] and in experiment [11] was inactive. Also, the result in experiment [12] and in experiment [14] was inactive. Moreover, the inhibition entry in [5], in experiment [6], in [7], in [8], in experiment [10] and in [13] was “inactive” throughout. Also, the inhibition result in experiment [15] and in experiment [16] was “inactive” throughout.
Regarding `C[C@@]1(C(=O)O)C[C@@H]1C(N)C(=O)O` (mixture of isomers), the result in experiment [1], in experiment [2], in experiment [3], in [4], in [9] and in experiment [12] was inactive. In addition, the result in experiment [14] was inactive. In experiment [18], the 50% effective concentration (EC50) was determined as 8.9 µM. Besides, the inhibition result in experiment [5], in experiment [6], in experiment [7], in [8], in experiment [10] and in experiment [13] was “inactive” in each case. For the same compound, the inhibition entry in experiment [15] and in experiment [16] was “inactive” throughout.
Regarding `CC1(C[C@H](N)C(=O)O)CC1C(=O)O` (some centres undefined), the inhibition entry in experiment [5], in experiment [6], in experiment [7], in experiment [8], in [10] and in experiment [13] was “inactive” in each case. Further, the inhibition entry in [15] and in [16] was “inactive” in each case.
With `C[C@]1(C(=O)O)C[C@@H]1[C@H](N)C(=O)O`, the result in experiment [1], in experiment [2], in [3], in [4], in [9] and in [12] was inactive. In addition, the outcome in [14] was inactive. Further, the EC50 in experiment [18] is 4.1 µM. Besides, the inhibition result in [5], in experiment [6], in [7], in [8], in experiment [10] and in experiment [13] was “inactive” each time. In addition, the inhibition entry in experiment [15] and in [16] was “inactive” each time.
Turning to `C[C@]1(C[C@H](N)C(=O)O)C[C@@H]1C(=O)O`, the outcome in experiment [1], in experiment [2], in experiment [3], in experiment [4], in experiment [9] and in experiment [11] was inactive. For the same compound, the outcome in experiment [12] and in [14] was inactive. Further, the inhibition entry in [5], in [6], in [7], in [8], in [10] and in experiment [13] was “inactive” each time. The inhibition result in [15] and in experiment [16] was “inactive” each time.
